Results: BindingDB's records for doi:10.1021/bi401043w (Mayo Clinic, 2013)

Columns and labels:
Acetylcholinesterase [1] = target: Acetylcholinesterase (Homo sapiens, UniProt P22303); test: Assay of Substrate Hydrolysis; conditions: pH 7; 25 °C
Method: (§1) Assays were conducted at 25 C in 20 mM sodium phosphate buffer (pH 7.0) and 0.01% bovine serum albumin unless otherwise noted. AChE concentrations were varied to optimize measured rates.

Acetylcholinesterase [2] = target: T1, Acetylcholinesterase (Mus musculus, UniProt P21836); test: Assay of Substrate Hydrolysis; conditions: pH 7; 25 °C
T1 sequence (P21836 whole entry): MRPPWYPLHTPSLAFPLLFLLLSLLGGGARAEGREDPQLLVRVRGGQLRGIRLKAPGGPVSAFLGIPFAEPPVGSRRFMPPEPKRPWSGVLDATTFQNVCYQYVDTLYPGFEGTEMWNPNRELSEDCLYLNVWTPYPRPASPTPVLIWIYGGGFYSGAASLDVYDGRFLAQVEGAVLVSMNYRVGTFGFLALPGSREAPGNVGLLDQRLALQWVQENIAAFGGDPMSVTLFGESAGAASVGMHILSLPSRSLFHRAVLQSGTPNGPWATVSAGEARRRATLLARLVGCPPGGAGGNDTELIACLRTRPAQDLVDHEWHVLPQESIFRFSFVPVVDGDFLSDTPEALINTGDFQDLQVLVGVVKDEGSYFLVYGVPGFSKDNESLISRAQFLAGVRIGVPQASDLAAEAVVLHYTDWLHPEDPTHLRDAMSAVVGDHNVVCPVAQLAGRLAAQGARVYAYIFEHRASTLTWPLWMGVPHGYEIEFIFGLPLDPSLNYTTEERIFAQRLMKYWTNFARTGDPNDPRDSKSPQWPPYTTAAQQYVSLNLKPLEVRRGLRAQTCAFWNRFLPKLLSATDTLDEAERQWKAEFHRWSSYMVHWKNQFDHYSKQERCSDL
Method: as §1

Acetylcholinesterase (Homo sapiens, UniProt P22303), sequence (P22303 whole entry): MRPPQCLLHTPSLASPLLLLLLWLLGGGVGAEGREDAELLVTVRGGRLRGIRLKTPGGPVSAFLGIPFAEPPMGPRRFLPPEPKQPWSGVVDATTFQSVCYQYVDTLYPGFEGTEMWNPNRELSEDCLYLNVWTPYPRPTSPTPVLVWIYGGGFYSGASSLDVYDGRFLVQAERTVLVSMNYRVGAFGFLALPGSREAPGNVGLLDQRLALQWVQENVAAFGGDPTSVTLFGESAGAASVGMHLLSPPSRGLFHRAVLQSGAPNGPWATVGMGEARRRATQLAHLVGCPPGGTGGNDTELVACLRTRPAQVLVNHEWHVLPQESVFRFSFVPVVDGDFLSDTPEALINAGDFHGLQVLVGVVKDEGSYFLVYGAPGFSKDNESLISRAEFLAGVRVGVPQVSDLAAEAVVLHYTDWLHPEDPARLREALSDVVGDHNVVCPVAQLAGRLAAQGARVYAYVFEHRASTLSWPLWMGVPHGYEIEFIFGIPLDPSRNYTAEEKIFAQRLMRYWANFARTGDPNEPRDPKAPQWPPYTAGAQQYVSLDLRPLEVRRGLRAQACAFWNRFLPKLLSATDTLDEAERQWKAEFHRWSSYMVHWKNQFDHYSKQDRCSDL

Structure (SMILES) | Ki (Acetylcholinesterase [1]) [nM] | Ki (Acetylcholinesterase [2]) [nM]
COc1cc(-c2cc3c(c(=O)o2)C[C@]2(O)[C@@]4(C)C(=O)C=CC(C)(C)[C@]4(O)CC[C@@]2(C)O3)cc(OC)c1OC | 1.7 | –
CCC1=C[C@@H]2Cc3nc4cc(Cl)ccc4c(N)c3[C@H](C1)C2 (racemic) [(1S)-7-chloro-15-ethyl-10-azatetracyclo[11.3.1.0^{2,11}.0^{4,9}]heptadeca-2(11),3,5,7,9,14-hexaen-3-amine] | 0.026 | –
O=c1ccc2ccccc2o1 [2H-chromen-2-one] | – | 9300
C/C=C1\C2C=C(C)CC1(N)c1ccc(=O)[nH]c1C2 (stereo not drawn) [(+)-Huperzine A] | 4.6 | –
COc1cc2c(c3oc(=O)c4c(c13)CCC4=O)[C@@H]1C=CO[C@@H]1O2 [Aflatoxin B1] | 28000 | –
Cc1cccc2c3c(ccc12)C1=C(C(=O)C3=O)[C@@H](C)CO1 [Dihydrotanshinone I] | 750 | –
CC[N+](C)(C)c1cccc(O)c1 [Edrophonium Chloride, 3] | – | 250
C[n+]1c2ccccc2cc2ccccc21 [N-methylacridinium] | – | 310
Cc1ccc2c(c1)sc(-c1ccc(N(C)C)cc1)[n+]2C [Thioflavin T, 1] | 1000 | –
